Results: article PMC9898036, “VIP152 is a selective CDK9 inhibitor with pre-clinical in vitro and in vivo efficacy in chronic lymphocytic leukemia” (Leukemia, 2022)

Columns and labels:
[1] = biological target: GSK3β (Homo sapiens, UniProt P49841); assay: NanoBRET target engagement assay (HEK293); type: cell-based
[2] = system: TP53 R175H and R248Q mutated HG-3 cell lines; assay: Annexin V/propidium iodide flow cytometry; type: cell-based, human; conditions: 24, 48, and 72 h
[3] = biological target: T1, α2C receptor (Homo sapiens, UniProt P18825); assay: Eurofins Diversity Panel: adrenergic α2C receptor; type: binding
T1 construct: purchased Eurofins

[4] = biological target: Endothelin ETA (Homo sapiens, UniProt P25101); assay: Eurofins Diversity Panel; type: binding; conditions: hum, Conc. 10 μM
[5] = biological target: Leukotriene, Cysteinyl CysLT1 (Homo sapiens, UniProt Q9Y271); assay: Eurofins Diversity Panel; type: binding; conditions: hum, Conc. 10 μM
[6] = biological target: Serotonin (5-Hydroxytryptamine) 5-HT1A) (Homo sapiens, UniProt P08908); assay: Eurofins Diversity Panel; type: binding; conditions: hum, Conc. 10 μM
[7] = biological target: PFCDPK1(P.falciparum) (Plasmodium falciparum, UniProt P62344); assay: DiscoverX KINOMEscan kinase profiling; type: binding; conditions: kinase PFCDPK1(P.falciparum) (Entrez CDPK1); compound concentration 1000 nM; read-out: Percent Control
[8] = biological target: SGK3 (Homo sapiens, UniProt Q96BR1); assay: KINOMEscan: SGK3; type: binding; conditions: 100 nM, read-out: Percent Control
[9] = biological target: TIE2 (Homo sapiens, UniProt Q02763); assay: KINOMEscan: TIE2; type: binding; conditions: 100 nM, read-out: Percent Control
[10] = biological target: WNK3 (Homo sapiens, UniProt Q9BYP7); assay: KINOMEscan: WNK3; type: binding; conditions: 100 nM, read-out: Percent Control
[11] = biological target: YSK1 (Homo sapiens, UniProt O00506); assay: KINOMEscan: YSK1; type: binding; conditions: 100 nM, read-out: Percent Control
[12] = biological target: CSNK1G1 (Homo sapiens, UniProt Q9HCP0); assay: KINOMEscan: CSNK1G1; type: binding; conditions: 1000 nM, read-out: Percent Control
[13] = biological target: DCAMKL1 (Homo sapiens, UniProt O15075); assay: KINOMEscan: DCAMKL1; type: binding; conditions: 1000 nM, read-out: Percent Control
[14] = biological target: DMPK (Homo sapiens, UniProt Q09013); assay: KINOMEscan: DMPK; type: binding; conditions: 1000 nM, read-out: Percent Control
[15] = biological target: EGFR(L858R,T790M) (Homo sapiens, UniProt P00533, L858R/T790M); assay: KINOMEscan: EGFR(L858R,T790M); type: binding; conditions: 1000 nM, read-out: Percent Control
[16] = biological target: EPHA1 (Homo sapiens, UniProt P21709); assay: KINOMEscan: EPHA1; type: binding; conditions: 1000 nM, read-out: Percent Control
[17] = biological target: EPHB3 (Homo sapiens, UniProt P54753); assay: KINOMEscan: EPHB3; type: binding; conditions: 1000 nM, read-out: Percent Control
[18] = biological target: ERK8 (Homo sapiens, UniProt Q8TD08); assay: KINOMEscan: ERK8; type: binding; conditions: 1000 nM, read-out: Percent Control
[19] = biological target: FLT3-autoinhibited (Homo sapiens, UniProt P36888); assay: KINOMEscan: FLT3-autoinhibited; type: binding; conditions: 1000 nM, read-out: Percent Control
[20] = biological target: GCN2(Kin.Dom.2,S808G) (Homo sapiens, UniProt Q9P2K8, S808G); assay: KINOMEscan: GCN2(Kin.Dom.2,S808G); type: binding; conditions: 1000 nM, read-out: Percent Control
[21] = biological target: IKK-beta (Homo sapiens, UniProt O14920); assay: KINOMEscan: IKK-beta; type: binding; conditions: 1000 nM, read-out: Percent Control
[22] = biological target: KIT(V559D,T670I) (Homo sapiens, UniProt P10721, T670I/V559D); assay: KINOMEscan: KIT(V559D,T670I); type: binding; conditions: 1000 nM, read-out: Percent Control
[23] = biological target: MARK1 (Homo sapiens, UniProt Q9P0L2); assay: KINOMEscan: MARK1; type: binding; conditions: 1000 nM, read-out: Percent Control
[24] = biological target: MKK7 (Homo sapiens, UniProt O14733); assay: KINOMEscan: MKK7; type: binding; conditions: 1000 nM, read-out: Percent Control
[25] = biological target: EGFR(L747-E749del, A750P) (Homo sapiens, UniProt P00533, A750P/DEL747-749); assay: biochemical; parameters: DiscoverX KINOMEscan kinase panel, per cent of control (100 = no effect), single concentrations; conditions: per cent of control, KINOMEscan; read-out: Percent Control
Experimental: (§1) The structure and synthesis of VIP152 were recently described by Lücking et al.. (Fig. 1A); however, the selectivity of the molecule in cellular systems has yet to be explored. […] We also performed this experiment at 1000 nM, where CDK9 was inhibited at 99%. […] We found a strong concordance between our data and those of Lücking when comparing the most inhibited kinases. Potential off-target effects of VIP152 were next tested in vitro at a concentration of 10 µM for off-target activity against a broad range of receptors, transporters, ion channels, and enzymes (n = 138) using the Eurofins Diversity Panel. […] A Chemical structure of VIP152.

[26] = biological target: EGFR(L747-S752del, P753S) (Homo sapiens, UniProt P00533, DEL747-752/P753S); assay: biochemical; parameters: DiscoverX KINOMEscan kinase panel, per cent of control (100 = no effect), single concentrations; conditions: per cent of control, KINOMEscan; read-out: Percent Control
Experimental: as §1

[27] = biological target: EGFR(L747-T751del,Sins) (Homo sapiens, UniProt P00533, DEL747-750/T751S); assay: biochemical; parameters: DiscoverX KINOMEscan kinase panel, per cent of control (100 = no effect), single concentrations; conditions: per cent of control, KINOMEscan; read-out: Percent Control
Experimental: as §1

[28] = biological target: FLT3(ITD) (Homo sapiens, UniProt P36888, ITD); assay: biochemical; parameters: DiscoverX KINOMEscan kinase panel, per cent of control (100 = no effect), single concentrations; conditions: per cent of control, KINOMEscan; read-out: Percent Control
Experimental: as §1

[29] = biological target: FLT3(ITD,D835V) (Homo sapiens, UniProt P36888, D835V/ITD); assay: biochemical; parameters: DiscoverX KINOMEscan kinase panel, per cent of control (100 = no effect), single concentrations; conditions: per cent of control, KINOMEscan; read-out: Percent Control
Experimental: as §1

[30] = biological target: FLT3(ITD,F691L) (Homo sapiens, UniProt P36888, F691L/ITD); assay: biochemical; parameters: DiscoverX KINOMEscan kinase panel, per cent of control (100 = no effect), single concentrations; conditions: per cent of control, KINOMEscan; read-out: Percent Control
Experimental: as §1

EGFR(L858R,T790M), sequence (P00533 25-1210 T790M/L858R): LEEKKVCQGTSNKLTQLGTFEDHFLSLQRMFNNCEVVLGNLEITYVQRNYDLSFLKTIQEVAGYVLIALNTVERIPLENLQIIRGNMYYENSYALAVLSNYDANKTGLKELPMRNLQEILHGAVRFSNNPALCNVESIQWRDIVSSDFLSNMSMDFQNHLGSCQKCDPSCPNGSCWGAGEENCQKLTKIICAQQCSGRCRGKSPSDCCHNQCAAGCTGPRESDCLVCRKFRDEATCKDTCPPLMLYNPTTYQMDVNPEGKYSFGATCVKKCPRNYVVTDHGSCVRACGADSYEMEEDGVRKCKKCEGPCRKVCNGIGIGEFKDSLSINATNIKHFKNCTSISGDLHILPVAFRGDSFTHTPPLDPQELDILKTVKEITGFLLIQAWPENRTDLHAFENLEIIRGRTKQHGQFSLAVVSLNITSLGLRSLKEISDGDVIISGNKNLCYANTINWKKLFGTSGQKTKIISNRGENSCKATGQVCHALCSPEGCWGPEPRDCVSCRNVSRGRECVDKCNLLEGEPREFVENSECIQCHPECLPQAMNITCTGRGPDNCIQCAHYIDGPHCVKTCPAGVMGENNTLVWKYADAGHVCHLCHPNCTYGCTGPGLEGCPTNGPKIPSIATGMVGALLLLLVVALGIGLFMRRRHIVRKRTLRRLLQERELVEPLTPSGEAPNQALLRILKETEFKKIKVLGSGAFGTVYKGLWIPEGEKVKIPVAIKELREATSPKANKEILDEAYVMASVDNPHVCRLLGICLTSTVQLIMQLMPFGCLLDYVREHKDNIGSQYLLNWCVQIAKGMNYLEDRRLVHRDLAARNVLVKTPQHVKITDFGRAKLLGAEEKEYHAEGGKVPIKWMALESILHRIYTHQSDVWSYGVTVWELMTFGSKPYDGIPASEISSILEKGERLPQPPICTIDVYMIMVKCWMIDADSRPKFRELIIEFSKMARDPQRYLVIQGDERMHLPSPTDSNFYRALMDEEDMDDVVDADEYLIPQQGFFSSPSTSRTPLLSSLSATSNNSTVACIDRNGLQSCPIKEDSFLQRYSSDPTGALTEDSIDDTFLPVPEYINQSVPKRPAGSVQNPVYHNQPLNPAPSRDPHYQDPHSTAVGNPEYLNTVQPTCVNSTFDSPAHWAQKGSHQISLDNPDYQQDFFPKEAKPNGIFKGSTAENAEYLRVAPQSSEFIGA
Serotonin (5-Hydroxytryptamine) 5-HT1A), sequence (P08908 whole entry): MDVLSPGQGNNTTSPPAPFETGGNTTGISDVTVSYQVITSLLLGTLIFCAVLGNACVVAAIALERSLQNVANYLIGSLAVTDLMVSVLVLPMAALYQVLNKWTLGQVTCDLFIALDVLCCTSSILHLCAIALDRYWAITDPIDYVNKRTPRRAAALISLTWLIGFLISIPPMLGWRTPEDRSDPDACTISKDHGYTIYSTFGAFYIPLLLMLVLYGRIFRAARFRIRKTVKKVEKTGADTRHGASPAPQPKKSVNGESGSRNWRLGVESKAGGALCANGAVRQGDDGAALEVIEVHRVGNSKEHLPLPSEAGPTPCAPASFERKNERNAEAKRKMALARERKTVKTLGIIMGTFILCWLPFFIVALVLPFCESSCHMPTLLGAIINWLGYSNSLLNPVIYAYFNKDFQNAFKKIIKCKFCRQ
ERK8, sequence (Q8TD08 whole entry): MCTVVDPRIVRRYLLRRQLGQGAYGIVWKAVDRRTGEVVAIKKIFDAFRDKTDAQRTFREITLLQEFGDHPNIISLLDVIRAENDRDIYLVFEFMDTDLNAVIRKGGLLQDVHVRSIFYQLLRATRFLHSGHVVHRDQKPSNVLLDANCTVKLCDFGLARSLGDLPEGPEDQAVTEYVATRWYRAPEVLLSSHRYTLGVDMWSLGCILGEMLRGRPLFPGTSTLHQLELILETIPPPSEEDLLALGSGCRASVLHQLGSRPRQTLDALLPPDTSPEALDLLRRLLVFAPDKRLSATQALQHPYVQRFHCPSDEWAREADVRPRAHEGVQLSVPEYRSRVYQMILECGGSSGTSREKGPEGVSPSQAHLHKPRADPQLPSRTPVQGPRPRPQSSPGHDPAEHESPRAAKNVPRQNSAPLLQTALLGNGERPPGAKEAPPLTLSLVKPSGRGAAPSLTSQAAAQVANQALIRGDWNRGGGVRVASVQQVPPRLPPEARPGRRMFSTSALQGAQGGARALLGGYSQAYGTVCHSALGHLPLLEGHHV
Leukotriene, Cysteinyl CysLT1, sequence (Q9Y271 whole entry): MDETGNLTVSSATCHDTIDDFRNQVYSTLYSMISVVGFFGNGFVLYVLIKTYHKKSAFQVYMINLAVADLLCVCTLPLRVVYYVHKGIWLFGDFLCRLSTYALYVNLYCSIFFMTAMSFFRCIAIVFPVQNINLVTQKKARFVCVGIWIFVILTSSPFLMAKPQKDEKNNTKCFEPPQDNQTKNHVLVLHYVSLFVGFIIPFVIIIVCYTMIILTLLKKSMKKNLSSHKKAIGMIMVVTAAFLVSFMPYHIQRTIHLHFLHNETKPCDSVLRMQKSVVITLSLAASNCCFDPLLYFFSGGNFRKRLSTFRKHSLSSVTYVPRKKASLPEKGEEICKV
T1 sequence (P18825 whole entry): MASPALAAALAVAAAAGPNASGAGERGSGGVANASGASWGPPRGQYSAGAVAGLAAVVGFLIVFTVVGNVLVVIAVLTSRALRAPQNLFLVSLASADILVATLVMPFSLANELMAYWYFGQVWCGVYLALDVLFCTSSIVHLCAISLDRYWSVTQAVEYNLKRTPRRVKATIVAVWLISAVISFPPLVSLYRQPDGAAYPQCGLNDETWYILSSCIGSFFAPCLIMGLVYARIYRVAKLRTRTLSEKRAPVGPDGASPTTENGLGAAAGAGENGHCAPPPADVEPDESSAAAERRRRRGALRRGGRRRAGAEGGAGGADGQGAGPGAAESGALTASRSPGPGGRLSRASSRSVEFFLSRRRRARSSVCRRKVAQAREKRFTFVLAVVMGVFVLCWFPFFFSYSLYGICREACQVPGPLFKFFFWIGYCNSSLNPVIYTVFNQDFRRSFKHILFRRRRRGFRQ
IKK-beta, sequence (O14920 whole entry): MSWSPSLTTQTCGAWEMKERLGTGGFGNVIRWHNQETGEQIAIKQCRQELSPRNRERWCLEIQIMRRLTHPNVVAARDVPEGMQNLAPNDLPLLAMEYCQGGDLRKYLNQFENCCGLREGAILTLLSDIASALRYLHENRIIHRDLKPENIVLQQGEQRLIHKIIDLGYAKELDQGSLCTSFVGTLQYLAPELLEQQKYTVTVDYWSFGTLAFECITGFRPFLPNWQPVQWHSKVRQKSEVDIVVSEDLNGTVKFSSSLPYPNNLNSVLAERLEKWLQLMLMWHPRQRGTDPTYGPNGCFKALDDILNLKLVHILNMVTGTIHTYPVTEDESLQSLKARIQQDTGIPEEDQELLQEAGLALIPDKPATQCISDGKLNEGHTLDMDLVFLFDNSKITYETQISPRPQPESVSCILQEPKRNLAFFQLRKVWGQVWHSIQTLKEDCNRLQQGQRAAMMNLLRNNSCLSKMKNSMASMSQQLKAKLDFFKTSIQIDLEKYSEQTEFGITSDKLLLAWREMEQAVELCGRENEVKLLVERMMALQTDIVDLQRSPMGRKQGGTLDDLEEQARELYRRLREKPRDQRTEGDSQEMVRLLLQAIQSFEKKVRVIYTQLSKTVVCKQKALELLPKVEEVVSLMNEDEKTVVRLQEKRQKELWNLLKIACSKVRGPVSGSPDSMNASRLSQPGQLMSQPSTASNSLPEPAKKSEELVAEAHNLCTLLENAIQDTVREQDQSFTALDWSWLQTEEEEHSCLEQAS
CSNK1G1, sequence (Q9HCP0 whole entry): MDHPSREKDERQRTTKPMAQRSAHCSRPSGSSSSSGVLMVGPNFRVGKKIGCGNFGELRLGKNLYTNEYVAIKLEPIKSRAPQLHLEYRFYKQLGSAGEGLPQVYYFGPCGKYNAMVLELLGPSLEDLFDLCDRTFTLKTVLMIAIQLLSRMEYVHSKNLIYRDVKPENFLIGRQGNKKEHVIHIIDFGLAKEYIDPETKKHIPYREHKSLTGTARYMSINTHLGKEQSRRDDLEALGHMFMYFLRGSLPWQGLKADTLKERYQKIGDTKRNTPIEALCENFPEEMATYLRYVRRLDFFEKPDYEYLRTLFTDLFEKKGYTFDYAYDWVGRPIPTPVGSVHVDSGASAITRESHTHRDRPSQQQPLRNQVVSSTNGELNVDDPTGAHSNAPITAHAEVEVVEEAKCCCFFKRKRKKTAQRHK
Endothelin ETA, sequence (P25101 21-427): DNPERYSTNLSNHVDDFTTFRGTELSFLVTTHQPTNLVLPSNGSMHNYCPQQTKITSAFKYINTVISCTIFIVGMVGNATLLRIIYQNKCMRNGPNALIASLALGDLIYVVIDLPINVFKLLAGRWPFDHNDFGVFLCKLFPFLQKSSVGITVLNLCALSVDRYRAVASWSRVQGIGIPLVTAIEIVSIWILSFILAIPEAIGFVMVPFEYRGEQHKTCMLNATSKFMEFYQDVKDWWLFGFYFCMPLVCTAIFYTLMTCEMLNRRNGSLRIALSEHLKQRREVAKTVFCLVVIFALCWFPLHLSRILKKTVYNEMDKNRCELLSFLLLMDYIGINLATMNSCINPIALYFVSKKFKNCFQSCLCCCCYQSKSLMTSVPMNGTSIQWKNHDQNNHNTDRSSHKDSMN
GSK3β, sequence (P49841 whole entry): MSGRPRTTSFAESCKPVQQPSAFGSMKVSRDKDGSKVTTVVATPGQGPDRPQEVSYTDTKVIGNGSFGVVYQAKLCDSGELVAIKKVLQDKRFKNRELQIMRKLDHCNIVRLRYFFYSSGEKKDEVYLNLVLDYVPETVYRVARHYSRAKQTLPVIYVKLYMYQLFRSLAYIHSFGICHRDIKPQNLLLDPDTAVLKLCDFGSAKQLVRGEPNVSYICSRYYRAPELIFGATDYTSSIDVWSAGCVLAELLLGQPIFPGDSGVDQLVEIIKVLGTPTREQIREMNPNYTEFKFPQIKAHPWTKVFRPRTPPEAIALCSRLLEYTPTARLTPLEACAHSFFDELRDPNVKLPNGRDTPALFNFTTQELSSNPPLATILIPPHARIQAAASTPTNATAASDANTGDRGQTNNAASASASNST

## COc1cc(F)ccc1-c1cc(Nc2cc(CS(C)(=N)=O)ccn2)ncc1F (stereo not drawn) [VIP152]
[1]
  inhibitory capacity against GSK3β: Inhibits
[2]
  cytotoxicity: significant levels of cytotoxicity
[3]
  IC50: 340 nM
[4]
  inhibition at 10 µM: 13%
[5]
  inhibition at 10 µM: -22%
[6]
  inhibition at 10 µM: 13%
[7]
  remaining binding at 1 µM: 86%
[8]
  remaining binding at 0.1 µM: 100%
[9]
  remaining binding at 0.1 µM: 100%
[10]
  remaining binding at 0.1 µM: 95%
[11]
  remaining binding at 0.1 µM: 100%
[12]
  remaining binding at 1 µM: 91%
[13]
  remaining binding at 1 µM: 86%
[14]
  remaining binding at 1 µM: 62%
[15]
  remaining binding at 1 µM: 81%
[16]
  remaining binding at 1 µM: 78%
[17]
  remaining binding at 1 µM: 100%
[18]
  remaining binding at 1 µM: 58%
[19]
  remaining binding at 1 µM: 76%
[20]
  remaining binding at 1 µM: 100%
[21]
  remaining binding at 1 µM: 100%
[22]
  remaining binding at 1 µM: 64%
[23]
  remaining binding at 1 µM: 89%
[24]
  remaining binding at 1 µM: 100%
[25]
  remaining binding at 0.1 µM: 100%
[26]
  remaining binding at 0.1 µM: 93%
[27]
  remaining binding at 0.1 µM: 100%
[28]
  remaining binding at 0.1 µM: 100%
[29]
  remaining binding at 0.1 µM: 100%
[30]
  remaining binding at 0.1 µM: 99%
